Test results: US9708336B2, “Metallo-beta-lactamase inhibitors” (priority 2014, dated 2017)
Where two headings read alike, the source gives them in different places.

What was measured:
VIM-1 = VIM-1 (Pseudomonas aeruginosa (strain ATCC 15692 / DSM 22644 / CIP 104116 / JCM 14847 / LMG 12228 / 1C / PRS 101 / PAO1), UniProt A0A0F7KYQ8); experiment: Enzyme activity: determination of IC50, fluorescence assay with CCF2-FA substrate (VIM-1); format: biochemical
IMP-1 = IMP-1 (Serratia marcescens, UniProt P52699); experiment: biochemical; format: biochemical; details: read-out: IMP-1 IC50
Sequence of IMP-1 (P52699 whole entry, looked up): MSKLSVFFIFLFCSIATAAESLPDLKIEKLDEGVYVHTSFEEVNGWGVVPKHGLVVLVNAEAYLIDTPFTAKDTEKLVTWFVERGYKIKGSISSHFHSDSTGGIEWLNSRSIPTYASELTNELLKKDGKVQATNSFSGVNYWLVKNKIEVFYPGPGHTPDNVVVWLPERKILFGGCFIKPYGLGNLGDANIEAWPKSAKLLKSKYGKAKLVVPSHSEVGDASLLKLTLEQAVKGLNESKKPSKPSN

NDM-1 = NDM-1 (Klebsiella pneumoniae, UniProt C7C422); experiment: biochemical; format: biochemical; details: read-out: NDM-1 IC50
Sequence of NDM-1 (C7C422 whole entry, looked up, species assumed): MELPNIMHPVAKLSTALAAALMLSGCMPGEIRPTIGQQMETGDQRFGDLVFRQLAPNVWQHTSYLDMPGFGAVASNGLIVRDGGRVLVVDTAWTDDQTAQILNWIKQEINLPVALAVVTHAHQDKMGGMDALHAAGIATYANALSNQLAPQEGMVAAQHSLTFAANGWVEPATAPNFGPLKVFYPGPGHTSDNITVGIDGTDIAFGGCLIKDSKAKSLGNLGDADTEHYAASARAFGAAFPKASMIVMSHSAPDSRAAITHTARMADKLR

[1] = tested on: Serratia marcescens expressing IMP-1 (CL5741); experiment: Antibiotic potentiation activity: synergistic concentration (MITC95) with imipenem, OD600 growth; format: cell-based; details: for Serratia marcescens expressing IMP-1 (CL5741) MITC95: concentration giving 95% inhibition of bacterial growth
Procedure: (§1) Antibiotic Potentiation Activity: Determination of Synergistic Concentration
(§2) The bacterial strains tested included the clinical strains Escherichia coli expressing NDM-1 (CLB30005, CLB30016), Serratia marcescens expressing IMP-1 (CL5741), and Klebsiella pneumoniae expressing VIM-1 (IHMA599644) Inhibitor activity was measured in the presence and absence of imipenem in a 384-well microplate.
(§3) The clinical strains CLB30016, CL5741 and IHMA599644 were grown on trypticase soy agar containing 5% sheep's blood. The clinical strain CLB30005 was grown on Mueller Hinton broth agar containing 8 ug/ml imipenem. The bacteria on agar plates were incubated at 35° C. with humidity overnight. The following day, individual colonies from each clinical strain were picked and resuspended in 5 ml saline to attain an OD600 of 0.14, 0.11, 0.15 and 0.13, for CLB30005, CLB30016, CL5741 and IHMA599644, respectively. These were further diluted 1:100 into 1.1×CAMHB and used to inoculate the test wells as described below.
(§4) Imipenem in 10 mM 3-(N-morpholino)propanesulfonic acid (MOPS, pH 7) was stored in single use aliquots at −80° C. […] On the day of the assay, 4 μl of antibiotic was added to 45 ul of bacteria followed by 1 μl of test compound and mixed by pipetting and with an orbital shaker. The concentration of antibiotic used in the assay was 4 μg/ml, or optionally 1 μg/ml. Microplates were covered and incubated at 35° C. for 22 hours to 24 hours. At the end of the incubation, absorbance was determined using a spectrophotometer.

[2] = tested on: Klebsiella pneumoniae expressing VIM-1 (IHMA599644); experiment: as above; format: cell-based; details: for Klebsiella pneumoniae expressing VIM-1 (IHMA 599644) MITC95: concentration giving 95% inhibition of bacterial growth
Procedure: as §1, §2, §3, §4

[3] = tested on: Escherichia coli expressing NDM-1 (CLB30016); experiment: as above; format: cell-based; details: for Escherichia coli expressing NDM-1 (CLB 30016) MITC95: concentration giving 95% inhibition of bacterial growth
Procedure: as §1, §2, §3, §4

[4] = IMP-1 enzyme, CCF2-FA fluorescence assay
[5] = NDM-1 enzyme, CCF2-FA fluorescence assay
[6] = Serratia marcescens expressing IMP-1 (CL5741), 95% growth inhibition
[7] = Klebsiella pneumoniae expressing VIM-1 (IHMA599644), 95% growth inhibition
[8] = Escherichia coli expressing NDM-1 (CLB30016), 95% growth inhibition
[9] = IMP-1 enzyme, CCF2-FA substrate
[10] = NDM-1 enzyme, CCF2-FA substrate
[11] = Serratia marcescens CL5741 (IMP-1), 95% growth inhibition
[12] = Klebsiella pneumoniae IHMA599644 (VIM-1), 95% growth inhibition
[13] = (CLB30016, NDM-1), 95% growth inhibition
[14] = fluorescence assay with CCF2-FA substrate
[15] = fluorescence assay with CCF2-FA substrate; read-out: VIM-1 IC50

NS(=O)(=O)c1c(C(F)(F)F)ccc(N2CC3(CCNCC3)C2)c1-c1nnn[nH]1 [Example 782]
IC50 (VIM-1; read-out: VIM-1 IC50; fluorescence assay with CCF2-FA substrate): 9.5 nM

NS(=O)(=O)c1c(C(F)(F)F)ccc(-c2ccc3nccn3c2)c1-c1nnn[nH]1 [Example 481, 3-imidazo[1,2-a]pyridin-6-yl-2-(1H-tetrazol-5-yl)-6-(trifluoromethyl)benzenesulfonamide]
IC50 (IMP-1; [4]): 7.11 nM
IC50 (NDM-1; [5]): 1.46 nM
Serratia marcescens MITC95 [1, 6]: 0.543 µM
Klebsiella pneumoniae MITC95 [2, 7]: 1.922 µM
Escherichia coli MITC95 [3, 8]: 0.125 µM

CN1[C@@H]2CC[C@H]1CC(NCc1ccc(-c3cccc(S(N)(=O)=O)c3-c3nnn[nH]3)cc1)C2 (stereo partly drawn) [Example 366, 4′-({[(3-endo)-8-methyl-8-azabicyclo[3.2.1]oct-3-yl]amino}methyl)-2-(1H-tetrazol-5-yl)biphenyl-3-sulfonamide]
IC50 (IMP-1; [4]): 257 nM
IC50 (NDM-1; [5]): 18.2 nM
Serratia marcescens MITC95 [1, 6]: 3.125 µM
Klebsiella pneumoniae MITC95 [2, 7]: 150 µM
Escherichia coli MITC95 [3, 8]: 1.172 µM

NS(=O)(=O)c1c(C(F)(F)F)ccc(C2CCC2)c1-c1nnn[nH]1 [Example 492, 3-cyclobutyl-2-(1H-tetrazol-5-yl)-6-(trifluoromethyl)benzenesulfonamide]
IC50 (IMP-1; [9]): 16 nM
IC50 (NDM-1; [10]): 17.3 nM
Serratia marcescens MITC95 [1, 11]: 0.3906 µM
Klebsiella pneumoniae MITC95 [2, 12]: 12.5 µM
Escherichia coli MITC95 [3, 13]: 3.125 µM

NS(=O)(=O)c1cccc(-c2ccc(CO)cc2)c1-c1nnn[nH]1 [Example 26, 4′-(hydroxymethyl)-2-(1H-tetrazol-5-yl)biphenyl-3-sulfonamide]
IC50 (IMP-1; [14]): 46.2 nM
IC50 (NDM-1; [14]): 2.43 nM
Klebsiella pneumoniae expressing VIM-1 (IHMA 599644) MITC95 [2]: 50 µM
IC50 (VIM-1; [15]): 58.4 nM

NC1CCC(N2CC(c3ccc(-c4ccc(C(F)(F)F)c(S(N)(=O)=O)c4-c4nnn[nH]4)cc3)C2)CC1 (centres unmarked) [Example 809, 4′-[1-(4-aminocyclohexyl)azetidin-3-yl]-2-(1H-tetrazol-5-yl)-4-(trifluoromethyl)biphenyl-3-sulfonamide]
IC50 (IMP-1; [14]): 11.3 nM
IC50 (NDM-1; [14]): 4.02 nM
Serratia marcescens MITC95 ([1]; CL5741 (IMP-1), 95% inhibition of bacterial growth): 6.25 µM
Klebsiella pneumoniae MITC95 ([2]; IHMA599644 (VIM-1), 95% inhibition of bacterial growth): 50 µM
Escherichia coli MITC95 ([3]; CLB30016 (NDM-1), 95% inhibition of bacterial growth): 3.125 µM

NS(=O)(=O)c1nccc(NCc2ccccc2)c1-c1nnn[nH]1 [Example 235, 4-(benzylamino)-3-(1H-tetrazol-5-yl)pyridine-2-sulfonamide]
IC50 (IMP-1; [14]): 3440 nM
IC50 (NDM-1; [14]): 142 nM
Serratia marcescens expressing IMP-1 (CL5741) MITC95 [1]: 200 µM
Klebsiella pneumoniae expressing VIM-1 (IHMA 599644) MITC95 [2]: >200 µM
Escherichia coli expressing NDM-1 (CLB 30016) MITC95 [3]: 12.5 µM

NCCNc1ccc(-c2cccc(S(N)(=O)=O)c2-c2nnn[nH]2)cn1 [Example 634, 3-[6-(2-aminoethylamino)-3-pyridyl]-2-(1H-tetrazol-5-yl)benzenesulfonamide]
IC50 (IMP-1; [9]): 1280 nM
IC50 (NDM-1; [10]): 14.1 nM
Serratia marcescens MITC95 [1, 11]: 18.75 µM
Klebsiella pneumoniae MITC95 [2, 12]: 6.25 µM
Escherichia coli MITC95 [3, 13]: 0.5859 µM

Nc1nc2cncc(-c3ccc(C(F)(F)F)c(S(N)(=O)=O)c3-c3nnn[nH]3)c2[nH]1 [Example 571, 3-(2-amino-1H-imidazo[4,5-c]pyridin-7-yl)-2-(1H-tetrazol-5-yl)-6-(trifluoromethyl)benzenesulfonamide]
IC50 (IMP-1; [9]): 14.8 nM
IC50 (NDM-1; [10]): 1.71 nM
Serratia marcescens MITC95 [1, 11]: 3.125 µM
Klebsiella pneumoniae MITC95 [2, 12]: 6.25 µM
Escherichia coli MITC95 [3, 13]: 0.7813 µM

NS(=O)(=O)c1cccc(-c2ccc3nonc3c2)c1-c1nnn[nH]1 [Example 130, 3-(benzo[c][1,2,5]oxadiazol-5-yl)-2-(1H-tetrazol-5-yl)benzenesulfonamide]
IC50 (IMP-1; [14]): 267 nM
IC50 (NDM-1; [14]): 10.6 nM
Serratia marcescens expressing IMP-1 (CL5741) MITC95 [1]: 9.375 µM
Klebsiella pneumoniae expressing VIM-1 (IHMA 599644) MITC95 [2]: 37.5 µM
Escherichia coli expressing NDM-1 (CLB 30016) MITC95 [3]: 1.172 µM

NS(=O)(=O)c1c(C(F)(F)F)ccc([C@H]2CC[C@H](NC3CC[C@H]4NCC[C@@H]34)CC2)c1-c1nnn[nH]1 (stereo partly drawn) [Example 692, 3-{4-[(3aR,6aR)-octahydrocyclopenta[b]pyrrol-4-ylamino]cyclohexyl}-2-(1H-tetrazol-5-yl)-6-(trifluoromethyl)benzene sulfonamide]
IC50 (IMP-1; [9]): 19.8 nM
IC50 (NDM-1; [10]): 6.36 nM
Serratia marcescens MITC95 [1, 11]: 3.125 µM
Klebsiella pneumoniae MITC95 [2, 12]: 6.25 µM
Escherichia coli MITC95 [3, 13]: 1.563 µM

NS(=O)(=O)c1cccc(C2CCN(C(=O)C3(c4ccccc4)CC3)CC2)c1-c1nn[nH]n1 [Example 176, 3-(1-(1-phenylcyclopropanecarbonyl)piperidin-4-yl)-2-(2H-tetrazol-5-yl)benzenesulfonamide]
IC50 (IMP-1; [14]): 72.8 nM
IC50 (NDM-1; [14]): 6.43 nM
IC50 (VIM-1; [15]): 148 nM

NC1CCC(Cc2ccc(-c3ccc(C4CCNCC4)cc3)c(-c3nn[nH]n3)c2S(N)(=O)=O)CC1 (centres unmarked) [Example 455, 4-(((1s,4s)-4-aminocyclohexyl)methyl)-4′-(piperidin-4-yl)-2-(2H-tetrazol-5-yl)-[1,1′-biphenyl]-3-sulfonamide]
IC50 (IMP-1; [4]): 6.29 nM
Serratia marcescens MITC95 [1, 6]: 0.3906 µM
Klebsiella pneumoniae MITC95 [2, 7]: 1.563 µM
Escherichia coli MITC95 [3, 8]: 0.5859 µM

NC1CCC(Cc2ccc(-c3ccc(C4CCNCC4)cc3)c(-c3nn[nH]n3)c2S(N)(=O)=O)CC1 (centres unmarked) [Example 463, 4-(((1r,4r)-4-aminocyclohexyl)methyl)-4′-(piperidin-4-yl)-2-(2H-tetrazol-5-yl)-[1,1′-biphenyl]-3-sulfonamide]
IC50 (IMP-1; [4]): 6.58 nM
Serratia marcescens MITC95 [1, 6]: 0.1953 µM
Klebsiella pneumoniae MITC95 [2, 7]: 0.7813 µM
Escherichia coli MITC95 [3, 8]: 0.7813 µM

NS(=O)(=O)c1cccc(-c2ccc3ncnn3c2)c1-c1nnn[nH]1 [Example 111, 3-([1,2,4]triazolo[1,5-a]pyridin-6-yl)-2-(1H-tetrazol-5-yl)benzenesulfonamide]
Serratia marcescens expressing IMP-1 (CL5741) MITC95 [1]: 9.375 µM
Klebsiella pneumoniae expressing VIM-1 (IHMA 599644) MITC95 [2]: 18.75 µM
Escherichia coli expressing NDM-1 (CLB 30016) MITC95 [3]: 1.172 µM

NS(=O)(=O)c1cccc(-c2ccc(C(=O)NC3CCOC3)cc2)c1-c1nn[nH]n1 (centres unmarked) [Example 2, 3′-sulfamoyl-N-(tetrahydrofuran-3-yl)-2′-(2H-tetrazol-5-yl)biphenyl-4-carboxamide]
IC50 (IMP-1; [14]): 262 nM
IC50 (NDM-1; [14]): 52.3 nM
IC50 (VIM-1; [15]): 1910 nM

NS(=O)(=O)c1nccc(N2CCC(CN3CCOCC3)CC2)c1-c1nnn[nH]1 [Example 224, 4-[4-(morpholin-4-ylmethyl)piperidin-1-yl]-3-(1H-tetrazol-5-yl)pyridine-2-sulfonamide]
IC50 (NDM-1; [14]): 247 nM
Serratia marcescens expressing IMP-1 (CL5741) MITC95 [1]: 18.75 µM
Klebsiella pneumoniae expressing VIM-1 (IHMA 599644) MITC95 [2]: 200 µM
Escherichia coli expressing NDM-1 (CLB 30016) MITC95 [3]: 4.688 µM

Cc1cc(-c2nnn[nH]2)c(S(N)(=O)=O)cc1C [Example 252, 4,5-Dimethyl-2-(2H-tetrazol-5-yl)benzenesulfonamide]
IC50 (IMP-1; [4]): 112000 nM
IC50 (NDM-1; [5]): 591 nM
IC50 (VIM-1; VIM-1 enzyme, CCF2-FA fluorescence assay; read-out: VIM-1 IC50): 156000 nM
